From PubChem BioAssay (NCI) come the findings set out here.

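Grown in 96-well plates, cells were treated for 48 hours with each compound at five concentrations. Insufficient inhibition: endpoint recorded as highest concentration tested. Abbreviation: GI50, concentration required for 50% inhibition of growth. Definition used: TGI = concentration required for complete inhibition of growth.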 *1 amine or outer side, *2 acyl side, *3 side chain or, on linkers, in order; H or OH if unused. Where a SMILES comes first, the peptide text is derived from it. Bridges are numbered along the chain shown (N, C = ends). Roman numbers before positions name the chains, in order. [ ]: non-standard residue; d: D form. Actinocin(9to1) = Cc1c2oc3c(C)ccc(C(=O)[*:1])c3nc-2c(C(=O)[*:2])c(N)c1=O; NMeH = CN[CH](Cc1c[nH]cn1)C(=O)O; Sar = CNCC(=O)O A value given as a limit tells only on which side of the number the result lay.

Among the test systems are BT-549 breast; COLO 205 colon; DU-145 prostate; HCT-116 colon; MCF7 breast; SF-295 CNS; SK-MEL-28 melanoma; SN12C renal; UACC-257 melanoma; SNB-75 CNS.
What all share (assay): NCI tumour cell line growth inhibition, 48 h

With `Cc1ccc(/C=C(\C#N)c2cc3ccccc3n2C)cc1`, the GI50 with BT-549 breast was 0.742 µM; in the assay on COLO 205 colon, 0.41 µM; in the assay on DU-145 prostate it was 0.469 µM; in the assay on HCT-116 colon, 0.361 µM; in the assay on MCF7 breast, 0.305 µM; with SF-295 CNS, 0.285 µM. For the same compound, the GI50 in the assay on SK-MEL-28 melanoma is over 100 µM; with SN12C renal, 0.614 µM; in the assay with UACC-257 melanoma, over 100 µM. The TGI in the assay on BT-549 breast was over 26.7 µM; with COLO 205 colon, over 43.5 µM; in the assay with DU-145 prostate it was over 100 µM; in the assay with HCT-116 colon it was over 100 µM; in the assay with MCF7 breast, over 100 µM; in the assay on SF-295 CNS it was 1.46 µM. Also, the TGI in the assay with SK-MEL-28 melanoma, in the assay on SN12C renal and in the assay on UACC-257 melanoma was over 100 µM in each case.
Turning to `Cc1c2oc3c(C)ccc(C(=O)NC4C(=O)NC(C(C)C)C(=O)N5CCCC5C(=O)N(C)CC(=O)N(C)C(Cc5cnc[nH]5)C(=O)OC4C)c3nc-2c(C(=O)NC2C(=O)NC(C(C)C)C(=O)N3CCCC3C(=O)N(C)CC(=O)N(C)C(Cc3cnc[nH]3)C(=O)OC2C)c(N)c1=O` (centres undefined) (I: TVP[Sar][NMeH] / II: TVP[Sar][NMeH]; ester I:1-I:C, II:1-II:C; linker I:N-II:N via Actinocin(9to1); configuration not given here), the TGI in the assay on BT-549 breast, in the assay on COLO 205 colon, with MCF7 breast, in the assay on SF-295 CNS, in the assay on SK-MEL-28 melanoma and in the assay with SN12C renal was over 100 µM in each case. Further, the TGI with SNB-75 CNS and in the assay on UACC-257 melanoma was over 100 µM in each case.
As for `O=C(Oc1cccc(Cl)c1)c1ccccc1Nc1ccnc(C(F)(F)F)c1`, the GI50 with BT-549 breast is 6.77 µM; with DU-145 prostate it was 14.2 µM; in the assay with HCT-116 colon, 1.63 µM; with MCF7 breast it was 4.78 µM; with SF-295 CNS it was 18.3 µM; in the assay with SN12C renal it was 2.92 µM. Further, the TGI in the assay with BT-549 breast stood at 27.6 µM; with DU-145 prostate it was 27.6 µM; in the assay with HCT-116 colon, 3.45 µM; with MCF7 breast, 20 µM; with SF-295 CNS, 45.5 µM; with SN12C renal, 6.18 µM.
Consider `C(/C=N/NC1=NCCCCN1)=N\NC1=NCCCCN1`, for which the TGI with BT-549 breast, in the assay with COLO 205 colon, with HCT-116 colon, in the assay on MCF7 breast, with SF-295 CNS and with SK-MEL-28 melanoma was over 100 µM in each case. The TGI in the assay on SN12C renal, in the assay on SNB-75 CNS and in the assay with UACC-257 melanoma was over 100 µM throughout.
For `C#C[C@]1(O)CC[C@H]2[C@@H]3CC=C4c5sc(Nc6cc(F)ccc6F)nc5CC[C@]4(C)[C@H]3CC[C@@]21C`, the GI50 in the assay with BT-549 breast is 0.661 µM; with COLO 205 colon it was 2.05 µM; with DU-145 prostate it was 1.63 µM; in the assay on MCF7 breast, 1.5 µM; with SF-295 CNS it was 0.224 µM; in the assay on SK-MEL-28 melanoma, 1.09 µM. Further, the GI50 is 2.15 µM with SN12C renal, 0.736 µM with SNB-75 CNS and 1.83 µM in the assay on UACC-257 melanoma. Besides, the TGI was determined as 2.43 µM in the assay on BT-549 breast; 4.81 µM in the assay on COLO 205 colon; 3.44 µM with DU-145 prostate; 3.26 µM in the assay on MCF7 breast; 0.592 µM with SF-295 CNS; 2.34 µM with SK-MEL-28 melanoma. For the same compound, the values for the TGI with SN12C renal, in the assay on SNB-75 CNS and in the assay on UACC-257 melanoma were 5.23 µM, 2.18 µM and 4.31 µM, respectively.
Consider `COc1c(C(C)=O)c(OCCCCOc2c(C(C)=O)c(OC)c3ccoc3c2OC)c(OC)c2occc12`, for which the GI50 is 1.61 µM with BT-549 breast; 4.35 µM with COLO 205 colon; over 100 µM in the assay with DU-145 prostate; 3.71 µM in the assay on HCT-116 colon; 3.11 µM in the assay on MCF7 breast; 1.35 µM in the assay on SF-295 CNS. Also, the values for the GI50 in the assay on SK-MEL-28 melanoma, with SN12C renal and in the assay on SNB-75 CNS were 2.32 µM, over 100 µM and 8.72 µM, respectively. Also, the TGI in the assay with BT-549 breast is 5.22 µM; in the assay with COLO 205 colon it was over 100 µM; in the assay with DU-145 prostate, over 100 µM; in the assay on HCT-116 colon it was over 100 µM; with MCF7 breast, over 100 µM; with SF-295 CNS, over 100 µM. Also, the TGI in the assay on SK-MEL-28 melanoma is 7.05 µM; in the assay on SN12C renal it was over 100 µM; in the assay with SNB-75 CNS it was over 100 µM.
With `COc1ccccc1/C=C1\COc2ccc(-c3ccccc3)cc2C1=O`, the GI50 in the assay with BT-549 breast is 1.55 µM; in the assay on COLO 205 colon, 3.57 µM; in the assay on DU-145 prostate, 2.53 µM; in the assay on HCT-116 colon, 2.98 µM; in the assay on MCF7 breast, 2.4 µM; with SF-295 CNS, 4 µM. The figures for the GI50 in the assay with SK-MEL-28 melanoma, in the assay with SN12C renal and with SNB-75 CNS were 3.61 µM, 3.17 µM and 2.46 µM, respectively. Also, the TGI in the assay on BT-549 breast worked out at 4.89 µM; in the assay on COLO 205 colon, 13 µM; with DU-145 prostate, 6.63 µM; in the assay with HCT-116 colon, 12 µM; in the assay with SF-295 CNS, 85.4 µM; in the assay on SK-MEL-28 melanoma, 13.3 µM. The TGI was over 100 µM with SN12C renal and 6.97 µM in the assay on SNB-75 CNS.
Consider `CCCCC(SC(=S)N1CCCC1)C(=O)Nc1nc(CC(=O)OCC)cs1` (centres undefined), for which the GI50 with BT-549 breast is 59.7 µM; with DU-145 prostate it was 67.3 µM; in the assay on HCT-116 colon it was 28.9 µM; in the assay with MCF7 breast, 1.25 µM; in the assay on SF-295 CNS, 47.3 µM; in the assay on SK-MEL-28 melanoma it was 67.4 µM. Also, the values for the GI50 in the assay with SN12C renal, in the assay with SNB-75 CNS and in the assay on UACC-257 melanoma were 85.2 µM, over 100 µM and 47.9 µM, respectively. Further, the TGI with BT-549 breast, in the assay on DU-145 prostate, in the assay with HCT-116 colon, in the assay with MCF7 breast, in the assay on SF-295 CNS and in the assay with SK-MEL-28 melanoma was over 100 µM in each case. For the same compound, the TGI with SN12C renal, in the assay with SNB-75 CNS and in the assay on UACC-257 melanoma was over 100 µM throughout.
As to `COc1ccc2c(c1)/C(=C\c1ccncc1)C(=O)N2`, the GI50 in the assay with BT-549 breast is 12.5 µM; in the assay with COLO 205 colon, 11.9 µM; in the assay on DU-145 prostate it was 14.2 µM; with HCT-116 colon, 3.72 µM; with MCF7 breast, 8.68 µM; with SF-295 CNS, 15.7 µM. Moreover, the figures for the GI50 in the assay on SN12C renal and in the assay on UACC-257 melanoma were 10.3 µM and 4.62 µM, respectively. The TGI was 32.4 µM with BT-549 breast; 44.7 µM with COLO 205 colon; 34.3 µM with DU-145 prostate; 17.8 µM with HCT-116 colon; over 100 µM with MCF7 breast; 72.8 µM in the assay with SF-295 CNS. For the same compound, the results for the TGI in the assay with SN12C renal and in the assay on UACC-257 melanoma were 23.7 µM and 18.3 µM, respectively.
